Measurements taken from PMC7982595 (Frontiers in Pharmacology, 2021).
Structures can show the parent of a compound that is named as a salt. Where two headings read alike, the source gives them in different places.

Key:
[1] = Determination of solubility in different solvents (shaken 24 h, HPLC); format: physicochemical; conditions: 25 °C, thermodynamic from solid, mean ± SD
Procedure: Then they were shaken for 24 h with 100 rpm at 25°C. At last, the supernatant was directly injected into HPLC after high speed centrifugation (3,000 rpm for 10 min).

[2] = 25°C; ref Marco-Contelles et al., 2005; Saigal et al., 2013; cited from earlier work
[3] = In vivo drug release / pharmacokinetics, plasma galantamine by HPLC-ESI-MS/MS; parameters: species or system Sprague-Dawley (SD) rats; AUC0-t / AUC0-∞: unit not given here; conditions: 24 mg/kg
Procedure: Healthy Sprague-Dawley (SD) rats weighing 200–210 g were supplied by the Experimental Animal Breeding Center of Jinan Pengyue Co., Ltd. (Jinan, China). Before the drug administration, all rats were fasted for 12 h. But they were free access to diet and water throughout the study ([Zhang et al., 2019]). This study conformed to the Guide for the Care and Use of Laboratory Animals.
The study groups were carried out with twelve rats, which were randomly divided into two groups each with six rats. […] The blood samples of both groups were obtained via the orbital venous plexus and collected into heparinized tubes before and after dosing at 1 h, 3 h, 6 h, 12 h, 1 day, 2 days, 3 days, 4 days, 6 days, 8 days, 10 days, 12 days, […], 16 days, 18 days, 20 days. Other eighteen rats were randomly divided into the placebo group, negative group and oral administration group of six rats each. The placebo group received […] microspheres suspension in diluent at a single dose of 20 mg/kg by i.m., and the blood samples of this group were obtained the same as group I. The negative group was also carried out without any treatment, and the blood samples of this group were obtained the same as group I. The oral administration group was performed with GLT-PM (24 mg/kg), which was infused to stomach of rats. The blood samples of oral administration group were obtained before and after dosing at 15 min, 30 min, 45 min, 1 h, 1.5 h, 2 h, 3 h, 4 h, 6 h, 8 h, 12 h, 24 h, 48 h, 72 h. All blood samples were centrifuged immediately at 4,500 rpm for 10 min, and the plasma samples were separated into EP tubes and stored at −80°C until analysis ([Jiang et al., 2014]; [Zhang et al., 2019]).
After thawing at room temperature, 50 μL plasma samples were separately added into a […] centrifuge tube with the addition of 150 μL of acetonitrile. This mixture was vortex mixed for 1 min and centrifuged at 12700 rpm for 10 min. Then 100 μL supernate was mixed with 100 μL deionized water, and they was injected into vials for analysis ([Zhang et al., 2019]).
AB Sciex QTrap 6,500 + triple-quadrupole tandem mass spectrometer (Applied Biosystem Inc., Foster City, Calif, United States) was connected to Waters Acquity UPLC H-Class HPLC system (Waters Inc., Milford, Massachusetts, United States) via electro-spray ionization (ESI) interface. LC separation was performed on a Waters BEH C8 column (2.1 × 50 mm I.D., 1.7 μm) with mobile phase A (1 mmol/L ammonium acetate solution) and phase B (mixture of acetonitrile and methanol, 4:1, v/v) at 40°C, which was used with gradient elution as shown in Table 2 ([Suresha et al., 2014]). Quantitative analyses were performed in positive ion mode on a 6500 Q-trap mass analyzer (AB Sciex, Framingham, MA) coupled with electrospray ion source. Multiple reaction monitoring (MRM) mode was used for the quantification with ion spray voltage set at 5500 V, curtain gas 35 psi, […], and the interface heater temperature 450°C. […]
The plasma concentration-time data were analyzed with non-compartmental model by Phoenix WinNonlin 8.1 software (Pharsight Corporation, United States) to obtain the pharmacokinetic parameters, which included the area under the plasma concentration-time curve (AUC), half-life (T1/2) and mean residence time (MRT). The maximum plasma drug concentration (Cmax) and the time required to reach Cmax (Tmax) were directly read from the plasma concentration-time data.

[4] = n = 3, read-out: Solubility, benzyl alcohol
[5] = n = 3, read-out: Solubility, deionized water
[6] = n = 3, read-out: Solubility, dichloromethane
[7] = n = 3, read-out: Solubility, methanol
[8] = Oral administration: rats, plasma galantamine
[9] = Sprague-Dawley, rat, plasma, po

Row | SMILES | solubility at 24 h [1, 4] | solubility at 24 h [1, 5] | solubility at 24 h [1, 6] | solubility at 24 h [1, 7] | Solubility [2] | AUC0-t [3, 8] | AUC0-∞ [3, 8] | Cmax [3, 9] | Tmax [3, 9] | half-life [3, 9]
1 | COc1ccc2c3c1O[C@H]1C[C@@H](O)C=C[C@@]31CCN(C)C2 [Galantamine hydrobromide, reference compound] | 1570 ± 190 µg/mL | 4320 ± 370 µg/mL | 320 ± 30 µg/mL | 820 ± 90 µg/mL | 5.17 mg/mL |  |  |  |  | 
2 | COc1ccc2c3c1O[C@H]1C[C@@H](O)C=C[C@@]31CCN(C)C2.COc1ccc2c3c1O[C@H]1C[C@@H](O)C=C[C@@]31CCN(C)C2.O=C(O)c1cc2ccccc2c(Cc2c(O)c(C(=O)O)cc3ccccc23)c1O [GLT-PM, galantamine pamoate] | 357300 ± 210 µg/mL | 200 ± 20 µg/mL | 8720 ± 520 µg/mL | 1010 ± 210 µg/mL |  | 532.54 ± 73.08 | 532.91 ± 72.92 | 119 ± 44.6 ng/mL | 57.6 min | 259 min
